The text below walks through data of publication PMC6934184, “Selective DNA-PKcs inhibition extends the therapeutic index of localized radiotherapy and chemotherapy” (The Journal of Clinical Investigation, 2019).

Molecules are shown by their SMILES.

This experiment deals with T1, ITK (Homo sapiens, UniProt Q08881).
T1 construct: purchased Thermo Fisher Scientific (Life Technologies) SelectScreen
Description: SelectScreen Z'LYTE. It is filed as biochemical. Put shortly: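 NU5455 was profiled across the SelectScreen Broad panel of kinase activity and binding assays. Z'LYTE reactions such as CSF1R ran at apparent Km ATP, while the Adapta CAMK1 assay used ATP listed as 10. Values are given as percent.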

T1 sequence (Q08881 whole entry): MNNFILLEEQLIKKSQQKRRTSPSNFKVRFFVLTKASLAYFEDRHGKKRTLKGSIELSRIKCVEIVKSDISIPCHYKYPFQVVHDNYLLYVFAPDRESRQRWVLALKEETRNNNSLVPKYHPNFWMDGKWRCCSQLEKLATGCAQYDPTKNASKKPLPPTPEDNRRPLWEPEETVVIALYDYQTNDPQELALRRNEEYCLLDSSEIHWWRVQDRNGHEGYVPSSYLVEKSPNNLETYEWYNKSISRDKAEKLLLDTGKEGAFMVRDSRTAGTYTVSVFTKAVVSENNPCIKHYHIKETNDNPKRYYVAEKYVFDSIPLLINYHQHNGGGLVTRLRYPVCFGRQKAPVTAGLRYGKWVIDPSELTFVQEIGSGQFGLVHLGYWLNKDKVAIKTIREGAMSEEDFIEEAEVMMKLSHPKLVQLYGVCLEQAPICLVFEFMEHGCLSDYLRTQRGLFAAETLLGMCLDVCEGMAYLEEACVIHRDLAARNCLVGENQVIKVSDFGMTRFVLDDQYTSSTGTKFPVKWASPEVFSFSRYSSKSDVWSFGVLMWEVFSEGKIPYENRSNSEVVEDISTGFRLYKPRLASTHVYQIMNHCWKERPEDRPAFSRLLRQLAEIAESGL

For `CN(C(=O)CN1CCOCC1)c1ccc2sc3c(-c4cccc5c(=O)cc(N6CC7CCC(C6)O7)oc45)cccc3c2c1` [NU5455], the inhibition (commonly the change of the read-out against control, counted positive when it falls) at 1 µM turned out to be 5.5%.
